Laboratory results taken from patent US5607926A, “Cephalosporin antibiotics” (Microcide Pharmaceuticals, Inc., priority 1995, dated 1997).
Converted amounts (≈) assume the structure as drawn. Counter-ions that a name gives are not always drawn. Like-named read-outs stand apart in the source and are kept apart here.

Key:
Format in all cases: cell-based
[1] = test system: S. aureus Col8A (Meth^S)(lac^-); assay: In vitro antibacterial evaluation, MIC by agar dilution, S. aureus Col8A; conditions: Staphylococcus aureus
Outline: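 Agar dilution per NCCLS (1991): two-fold dilutions from 128 μg/mL down to ≤0.25 μg/mL in Mueller-Hinton agar, each level in duplicate. Spots of about 10^4 cfu of log-phase culture; 16-20 h at 35°-36° C. MIC in μg/ml is the lowest concentration inhibiting growth.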

[2] = test system: P. aeruginosa ATCC 27853; assay: In vitro antibacterial evaluation, MIC by agar dilution, P. aeruginosa ATCC 27853; conditions: Pseudomonas aeruginosa, ATCC27853, read-out: MIC
Outline: (§1)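 Two-fold dilutions of test compound, 128 μg/mL down to ≤0.25 μg/mL, were set in Mueller-Hinton agar in duplicate and spot-inoculated with about 10^4 cfu of log-phase culture. Plates were incubated 16-20 hours at 35°-36° C, and MIC taken as the lowest concentration inhibiting growth, following NCCLS agar dilution.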

[3] = test system: E. coli ATCC 25922; assay: In vitro antibacterial evaluation, MIC by agar dilution, E. coli ATCC 25922; conditions: Escherichia coli, ATCC25922, read-out: MIC
Outline: as §1

[4] = test system: S. aureus 76 (Meth^R)(lac^+); assay: In vitro antibacterial evaluation, MIC by agar dilution, S. aureus 76; conditions: Staphylococcus aureus, read-out: MIC
Outline: as §1

[5] = test system: S. haemolyticus (Meth^R); assay: In vitro antibacterial evaluation, MIC by agar dilution, S. haemolyticus; conditions: Staphylococcus haemolyticus, read-out: MIC
Outline: as §1

[6] = test system: S. epidermidis ATCC 31432; assay: In vitro antibacterial evaluation, MIC by agar dilution, S. epidermidis ATCC 31432; conditions: Staphylococcus epidermidis, ATCC31432
Outline: as §1

[7] = test system: S. aureus ATCC 25923; assay: In vitro antibacterial evaluation, MIC by agar dilution, S. aureus ATCC 25923; conditions: Staphylococcus aureus, ATCC25923
Description: The compounds of the invention were evaluated against several β-lactamresistant bacteria strains by determining the minimum inhibitory concentration (MIC, μg/ml) of each compound with respect to each strain. The MIC, the lowest concentration of antibiotic which inhibits growth of the test organism, was determined by the agar dilution method.
To determine the MIC for bacterial isolates, the test compound was incorporated in a series of two-fold dilutions into liquified Mueller-Hinton agar. Upon solidification, a number of different bacterial strains were spot inoculated with a replicating device onto the agar surface. […] The procedures used in these studies have been standardized by the National Committee for Clinical Laboratory Standards (NCCLS), as per the NCCLS publication entitled METHODS FOR DILUTION ANTIMICROBIAL SUSCEPTIBILITY TESTS (1991), which is incorporated herein by reference.
Aliquots of antimicrobial agents were prepared in phosphate buffered saline (PBS) at pH 7.2. Tween 20 or DMSO was used as a solubilizing vehicle as needed. Standard methods of vortexing, sonicating and gentle heat were used to facilitate solubilizing the test agent. Typically, the concentration of the stock solution was 10× that of the highest drug concentration tested. A 1.28 mg/mL stock solution was used with a subsequent highest working concentration of 128 μg/mL. Serial two-fold dilutions were done through ≤0.25 μg/mL. Each drug level was tested in duplicate. Two-fold drug dilutions were done in sterile 50 mL tubes with a final drug volume of 5 mL. Upon the addition of 45 mL of molten agar, a 10-fold dilution resulted. Two, 25 mL. plates were then poured into 15×150 mm square Petri plates with grids and allowed to harden.
A control plate with a reference drug, either cefotaxime, vancomycin or imipenem, was used as the positive growth control. Stock concentrations of reference antibiotics were prepared and frozen at -80° C. Upon preparation, the control plates were sealed and stored in the refrigerator for up to 1 week prior to use; however, imipenem control plates had to be prepared just prior to use. All test plates were used within 24 hours of preparation.
Satisfactory results were obtained where the inoculum contained about 10^4 colony forming units (cfu) ±0.5 logs. Starting with pure cultures of the test isolates on agar plates, a few isolated colonies were transferred to a tube of nutrient broth and allowed to grow 4-6 hours at 35°-36° C. to reach log-phase growth. Dropwise addition of the broth culture to PBS was done to match a 0.5 McFarland turbidity standard equal to 10^8 cfu/mL. This was further diluted ten-fold in PBS to reach a working inoculum concentration of 10^7 cfu/mL. When 1 μL of the working inoculum was applied to the agar surface a concentration of about 10^4 cfu per spot was obtained.
Disposable sterile 1 μL loops were used to inoculate test plates, with each isolate in a designated grid on the agar plate. An alternate method of inoculation involved the use of a replica plater, a device with 48 steel pins allowing the simultaneous inoculation of multiple isolates. After the spots had dried, the plates were incubated at 35°-36° C. for 16-20 hours. Endpoints were assessed as the minimum inhibitory concentration (MIC) of antimicrobial agent.

[8] = test system: E. faecalis ATCC 29212; assay: In vitro antibacterial evaluation, MIC by agar dilution, E. faecalis ATCC 29212; conditions: Enterococcus faecalis, ATCC29212; E. faecalis ATCC 29212; read-out: MIC
Outline: as §1

[9] = test system: E. faecium ATCC 35667; assay: In vitro antibacterial evaluation, MIC by agar dilution, E. faecium ATCC 35667; conditions: Enterococcus faecium, ATCC35667, read-out: MIC
Outline: as §1

[10] = S. epidermidis ATCC 31432, read-out: MIC
[11] = S. aureus ATCC 25923, read-out: MIC

SMILES	MIC [1]	MIC [2]	MIC [3]	MIC [4]	MIC [5]	MIC [6]	MIC [7]	MIC [8]	MIC [9]	MIC [6, 10]	MIC [7, 11]
O=C(Cc1ccccc1)N[C@@H]1C(=O)N2C(C(=O)O)=C(Sc3cnnn3-c3ccccc3)CS[C@H]12 [Cmpd 91, (7R)-7-[(Phenylacetyl)amino]-3-(1-N-phenyl-1,2,3-triazol-5-ylthio)-3-cephem-4-carboxylic acid]	< 0.25 µg/mL	> 32 µg/mL	> 32 µg/mL	16 µg/mL (≈ 32.4 µM)	> 32 µg/mL	< 0.25 µg/mL	< 0.25 µg/mL	1 µg/mL (≈ 2.03 µM)	2 µg/mL (≈ 4.05 µM)		
CSc1ccccc1SC1=C(C(=O)O)N2C(=O)[C@@H](NC(=O)Cc3ccccc3)[C@H]2SC1 [Cmpd 44, (7R)-7-[(Phenylacetyl)amino]-3-(2-methylthiophenylthio)-3-cephem-4-carboxylic acid]	< 0.25 µg/mL	> 32 µg/mL	> 32 µg/mL	4 to 8 µg/mL (≈ 8.46 to 16.9 µM)	8 µg/mL (≈ 16.9 µM)	< 0.25 µg/mL	< 0.25 µg/mL	4 µg/mL (≈ 8.46 µM)	4 µg/mL (≈ 8.46 µM)		
Cn1cc[n+](Cc2ccc(-c3ccccc3SC3=C(C(=O)[O-])N4C(=O)[C@@H](NC(=O)Cc5ccccc5)[C@H]4SC3)s2)c1 [Cmpd 45, (7R)-7-[(Phenylacetyl)amino]-3-(2-(2-(N-methylimidazoliummethyl)thien-5-yl)phenylthio)-3-cephem-4-carboxylic acid]	0.5 µg/mL (≈ 0.83 µM)	> 32 µg/mL	> 32 µg/mL	16 µg/mL (≈ 26.5 µM)	32 µg/mL (≈ 53.1 µM)			4 µg/mL (≈ 6.64 µM)	4 µg/mL (≈ 6.64 µM)	< 0.25 µg/mL	< 0.25 µg/mL
O=C(Cc1ccccc1)N[C@@H]1C(=O)N2C(C(=O)O)=C(Sc3ccc4ccccc4c3Br)CS[C@H]12 [Cmpd 57, (7R)-7-[(Phenylacetyl)amino]-3-(1-bromo-naphthalen-2-ylthio)-3-cephem-4-carboxylic acid]	< 0.25 µg/mL	32 µg/mL (≈ 57.6 µM)	32 µg/mL (≈ 57.6 µM)	2 µg/mL (≈ 3.6 µM)	4 µg/mL (≈ 7.2 µM)	< 0.25 µg/mL	< 0.25 µg/mL	2 µg/mL (≈ 3.6 µM)	1 µg/mL (≈ 1.8 µM)		
Cn1cc[n+](Cc2ccoc2-c2ccccc2SC2=C(C(=O)[O-])N3C(=O)[C@@H](NC(=O)Cc4ccccc4)[C@H]3SC2)c1 [Cmpd 48, (7R)-7-[(Phenylacetyl)amino]-3-(2-(3-(N-methylimidazoliummethyl)furan-2-yl)phenylthio)-3-cephem-4-carboxylic acid]	0.5 µg/mL (≈ 0.852 µM)	> 32 µg/mL	> 32 µg/mL	16 µg/mL (≈ 27.3 µM)	16 µg/mL (≈ 27.3 µM)			4 µg/mL (≈ 6.82 µM)	4 µg/mL (≈ 6.82 µM)	< 0.25 µg/mL	< 0.25 µg/mL
C[n+]1cccc(SC2=C(C(=O)[O-])N3C(=O)[C@@H](NC(=O)Cc4ccccc4)[C@H]3SC2)c1-c1ccccc1 [Cmpd 82, (7R)-7-[(Phenylacetyl)amino]-3-(2-phenyl-N-methylpyridin-3-iumthio)-3-cephem-4-carboxylate]	< 0.25 µg/mL	> 32 µg/mL	> 32 µg/mL	16 µg/mL (≈ 30.9 µM)	32 µg/mL (≈ 61.8 µM)	< 0.25 µg/mL	< 0.25 µg/mL	1 µg/mL (≈ 1.93 µM)	4 µg/mL (≈ 7.73 µM)		
O=C(CSc1ccccc1)N[C@@H]1C(=O)N2C(C(=O)O)=C(Sc3cc(Cl)ccc3Cl)CS[C@H]12 [Cmpd 35, (7R)-7-[(Phenylthioacetyl)amino]-3-(2,5-dichlorophenylthio)-3-cephem-4-carboxylic acid]	< 0.25 µg/mL	> 32 µg/mL	> 32 µg/mL	2 µg/mL (≈ 3.79 µM)	8 µg/mL (≈ 15.2 µM)	< 0.25 µg/mL	< 0.25 µg/mL	1 µg/mL (≈ 1.9 µM)	1 µg/mL (≈ 1.9 µM)		
N=C(NCCN1CCOCC1)SCc1ccc(SC2=C(C(=O)O)N3C(=O)[C@@H](NC(=O)Cc4ccccc4)[C@H]3SC2)c(I)c1 [Cmpd 61, (7R)-7-[(Phenylacetyl)amino]-3-(4-(N-morpholinoethyl)isothiouroniummethyl-2-iodophenylthio)-3-cephem-4-carboxylate, inner salt]	0.5 µg/mL	> 32 µg/mL	> 32 µg/mL	16 µg/mL	> 32 µg/mL			4 µg/mL	4 µg/mL	< 0.25 µg/mL	< 0.25 µg/mL
